The subject of series [1] is Plasmodium falciparum malaria. To be noted: India; number among the 89 subjects who completed the study; cited from earlier work.
Series [2] relates to uncomplicated falciparum malaria. Conditions: area of multi-drug resistance, Thai-Burmese border; cited from earlier work.
The conditions of series [3]: fatty meal (approximately 30 g of fat) versus low-fat meal; with artesunate 8 mg/kg and mefloquine 15 mg/kg over 12h; cited from earlier work.
For series [4] the following is noted: in vivo. The method, then: Treatment safety was assessed clinically as well as by measuring hematological indices and serum creatinine and hepatic transaminase concentrations. The sample size was computed assuming equal efficacy of the two treatments, and 606 patients (303 in each treatment arm) were enrolled over two consecutive malaria transmission seasons.

As for `CCN(CC)CCCC(C)Nc1ccnc2cc(Cl)ccc12` (stereo not shown) [chloroquine], the treatment failures in series [1] was 46.
Take `OC(c1cc(C(F)(F)F)nc2c(C(F)(F)F)cccc12)C1CCCCN1` (stereo not shown) [MQ, mefloquine]: in series [2], the “Overall failure rates by day 28” value is reported as 24%. The bioavailability of mefloquine entry in series [3] is reported as “does not appear to increase the bioavailability”.
On to artemether-lumefantrine, for which the “mild and transient elevation of transaminases” value in series [4] is 0/72.

(Values after patent EP1940519B1, “Pharmaceutical composition comprising artesunate, sulfamethoxypyrazine and pyrimethamine for use in the treatment of malaria within one day” (Dafra Pharma N.V., priority 2005, dated 2007).)
